Patent US20240196663A1, “DISPLAY APPARATUS, DISPLAY MODULE, AND ELECTRONIC DEVICE” (SEMICONDUCTOR ENERGY LABORATORY CO., LTD., priority 2022, published 2024)

Assay: physchem

Row | SMILES | pKa
1 | c1cc(N2CCCn3ccnc32)nc(N2CCCn3ccnc32)c1 [2,6tip2Py, 8,8′-pyridine-2,6-diyl-bis(5,6,7,8-tetrahydroimidazo[1,2-a]pyrimidine)] | 9.58
2 | c1cc2ccc3ccc(N4CCCN5CCCN=C54)nc3c2nc1N1CCCN2CCCN=C21 [2,9hpp2Phen, 2,9-bis(1,3,4,6,7,8-hexahydro-2H-pyrimido[1,2-a]pyrimidin-1-yl)-1,10-phenanthroline] | 13.3
3 | c1ccc2c(c1)-c1ccccc1C21c2ccccc2-c2ccc(N3CCCN4CCCN=C43)cc21 [2hppSF, 1-(9,9′-spirobi[9H-fluoren]-2-yl)-1,3,4,6,7,8-hexahydro-2H-pyrimido[1,2-a]pyrimidine] | 13.9
4 | c1cc(-c2ccc3oc4c(-c5cccc(-c6cccc7c6sc6ccccc67)c5)ncnc4c3c2)cc(-c2cccc3c2sc2ccccc23)c1 [4,8mDBtP2Bfpm, 4,8-bis[3-(dibenzothiophen-4-yl)phenyl]-[1]benzofuro[3,2-d]pyrimidine] | 0.6
5 | c1cc(N2CCCC2)c2ccc3c(N4CCCC4)ccnc3c2n1 [Pyrrd-Phen, 4,7-di-1-pyrrolidinyl-1,10-phenanthroline] | 11.2
6 | c1cnc2c(c1)ccc1cccnc12 [phenanthroline, reference compound] | 4.8
7 | c1cnccn1 [pyrazine, reference compound] | 0.37
